Assay results from patent US11629171B2, “Beta-hairpin peptidomimetics” (POLYPHOR AG, priority 2017, dated 2023).
Values after ≈ are worked out from the molar mass of the structure shown. Where a SMILES comes first, the peptide text is derived from it. Bridges are numbered along the chain shown (N, C = ends). Roman numbers before positions name the chains, in order. [ ]: non-standard residue; d: D form. Tle = CC(C)(C)[C@H](N)C(=O)O; dOrn = NCCC[C@@H](N)C(=O)O; dDab = NCC[C@@H](N)C(=O)O; hSer = N[C@@H](CCO)C(=O)O; Orn = NCCC[C@H](N)C(=O)O; Dab = NCC[C@H](N)C(=O)O; Dap = NC[C@H](N)C(=O)O

Tests used:
Format in all cases: cell-based
[1] = test system: human red blood cells (hRBC); assay: Hemolysis; conditions: red cells of human, 1 h, 200
Method in brief: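 First, fresh human erythrocytes are washed in PBS; next, they are incubated at 20% (v/v) with compound at 200 μg/mL for 1 h at 37° C. Finally, centrifuged supernatants are diluted and OD540 is taken relative to the Triton X-100 lysis control.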

[2] = test system: Acinetobacter baumannii 872842; conditions: 872842
Experimental: (§1) The in vitro antimicrobial activities of the peptides were determined in 96-well plates (Greiner, polystyrene) by the standard CLSI broth microdilution method (Clinical and Laboratory Standards Institute 2014. Performance standards for antimicrobial susceptibility testing, 24th informational supplement. Approved standard CLSI M100-S24; Clinical and Laboratory Standards Institute, Wayne, Pa.). The following microorganisms were used to determine antibiotic activity of the peptides: Escherichia coli ATCC 25922, Klebsiella pneumoniae SSI #3010^a), Acinetobacter baumannii DSM 30008, Pseudomonas aeruginosa ATCC 27853 and the clinical isolates Escherichia coli 926415^b), Klebsiella pneumoniae 968733^b), Acinetobacter baumannii 872842^b), Enterobacter cloacae 848840^b) and Escherichia coli MCR-1 Af45^c). Before preparation of inocula, Escherichia coli MCR-1 Af45 was subcultured on Mueller-Hinton II (MH-cation adjusted) agar containing 2 μg/mL colistin. ^a) Obtained from Statens Serum Institut (SSI), Copenhagen, Denmark^b) Obtained from International Health Management Associates, Inc. (IHMA Europe Sàrl), Epalinges, Switzerland^c) Obtained from Prof. Patrice Nordmann, University of Fribourg, Fribourg, Switzerland
(§2) Inocula of the microorganisms were diluted into Mueller-Hinton II (MH-cation adjusted) broth and compared with a 0.5 McFarland standard to give appr. 10^6 colony forming units (CFU)/mL. Aliquots (90 μL) of inoculum were added to 10 μL of MH-II broth+P-80 (Polysorbate 80, 0.002% final concentration, v/v) containing the peptide in serial two-fold dilutions. Antimicrobial activities of the peptides were expressed as the minimal inhibitory concentration (MIC) in μg/mL at which no visible growth was observed after 18-20 hours of incubation at 35° C.

[3] = test system: Enterobacter cloacae 848840; conditions: 848840
Experimental: as §1, §2

[4] = test system: Escherichia coli 926415; conditions: 926415
Experimental: as §1, §2

[5] = test system: Pseudomonas aeruginosa ATCC 27853; conditions: ATCC 27853
Experimental: as §1, §2

[6] = test system: Klebsiella pneumoniae 968733; conditions: 968733
Experimental: as §1, §2

[7] = test system: Escherichia coli ATCC 25922; conditions: ATCC 25922
Experimental: as §1, §2

[8] = test system: Acinetobacter baumannii DSM 30008; conditions: DSM 30008
Experimental: as §1, §2

[9] = test system: Klebsiella pneumoniae SSI #3010; conditions: SSI #3010
Experimental: as §1, §2

Compound | Hemolysis at 200 μg/mL [1] [%] | MIC [2] [µg/mL] | MIC [3] [µg/mL] | MIC [4] [µg/mL] | MIC [5] [µg/mL] | MIC [6] [µg/mL] | MIC [7] [µg/mL] | MIC [8] [µg/mL] | MIC [9] [µg/mL]
CC(=O)N[C@H](C(=O)N[C@H]1CCCNC(=O)[C@@H](CCCN)NC(=O)[C@H](C(C)(C)C)NC(=O)[C@H](CO)NC(=O)[C@H](Cc2c[nH]c3ccccc23)NC(=O)[C@H](CCO)NC(=O)[C@@H](CCN)NC(=O)[C@H](CCC(=O)N[C@@H](CCN)C(=O)N[C@H](C(=O)N[C@@H](CN)C(=O)N[C@H]2CCNC(=O)[C@H]([C@@H](C)O)NC(=O)[C@H](CCN)NC(=O)[C@H](CCN)NC(=O)[C@H](CC(C)C)NC(=O)[C@@H](CC(C)C)NC(=O)[C@H](CCN)NC2=O)[C@@H](C)O)NC(=O)[C@H](CO)NC(=O)[C@H](Cc2ccc(O)cc2)NC1=O)C(C)C [Ex. 29] (I: Ac-V[Orn]YSE[dDab][hSer]WS[Tle][dOrn] / II: [Dab]T[Dap][Dab][Dab][dL]L[Dab][Dab]T; lactam I:2-I:C, II:4-II:C; amide I:5-II:N) | 1 | 1 (≈ 0.428 µM) | 0.0625 (≈ 0.0268 µM) | 4 (≈ 1.71 µM) | 0.25 (≈ 0.107 µM) | 8 (≈ 3.43 µM) | 0.0625 (≈ 0.0268 µM) | 0.125 (≈ 0.0536 µM) | 0.125 (≈ 0.0536 µM)
CC(=O)N[C@H](C(=O)N[C@H]1CCCNC(=O)[C@@H]([C@H](C)O)NC(=O)[C@H](C(C)C)NC(=O)[C@H](CO)NC(=O)[C@H](Cc2c[nH]c3ccccc23)NC(=O)[C@H](CCO)NC(=O)[C@@H](CCN)NC(=O)[C@H](CCC(=O)N[C@@H](CCN)C(=O)N[C@H](C(=O)N[C@@H](CN)C(=O)N[C@H]2CCNC(=O)[C@H]([C@@H](C)O)NC(=O)[C@H](CCN)NC(=O)[C@H](CCN)NC(=O)[C@H](CC(C)C)NC(=O)[C@@H](CC(C)C)NC(=O)[C@H](CCN)NC2=O)[C@@H](C)O)NC(=O)[C@H](CCN)NC(=O)[C@H](Cc2ccc(O)cc2)NC1=O)C(C)C [Ex. 31] (I: Ac-V[Orn]Y[Dab]E[dDab][hSer]WSV[dT] / II: [Dab]T[Dap][Dab][Dab][dL]L[Dab][Dab]T; lactam I:2-I:C, II:4-II:C; amide I:5-II:N) | <1 | 0.125 (≈ 0.0539 µM) | 0.125 (≈ 0.0539 µM) | 0.5 (≈ 0.216 µM) | 0.25 (≈ 0.108 µM) | 0.125 (≈ 0.0539 µM) | 0.03125 (≈ 0.0135 µM) | 0.03125 (≈ 0.0135 µM) | 0.0625 (≈ 0.0269 µM)
CC[C@H](C)[C@H](NC(C)=O)C(=O)N[C@H]1CCCNC(=O)[C@@H]([C@H](C)O)NC(=O)[C@H](C(C)(C)C)NC(=O)[C@H](CO)NC(=O)[C@H](Cc2c[nH]c3ccccc23)NC(=O)[C@H](CCO)NC(=O)[C@@H](CCN)NC(=O)[C@H](CCC(=O)N[C@@H](CCN)C(=O)N[C@H](C(=O)N[C@@H](CN)C(=O)N[C@H]2CCNC(=O)[C@H]([C@@H](C)O)NC(=O)[C@H](CCN)NC(=O)[C@H](CCN)NC(=O)[C@H](CC(C)C)NC(=O)[C@@H](CC(C)C)NC(=O)[C@H](CCN)NC2=O)[C@@H](C)O)NC(=O)[C@H](CN)NC(=O)[C@H](Cc2ccc(O)cc2)NC1=O [Ex. 32] (I: Ac-I[Orn]Y[Dap]E[dDab][hSer]WS[Tle][dT] / II: [Dab]T[Dap][Dab][Dab][dL]L[Dab][Dab]T; lactam I:2-I:C, II:4-II:C; amide I:5-II:N) | <1 | 0.0625 (≈ 0.0268 µM) | 0.125 (≈ 0.0536 µM) | 0.0625 (≈ 0.0268 µM) | 0.25 (≈ 0.107 µM) | 0.25 (≈ 0.107 µM) | 0.0625 (≈ 0.0268 µM) | 0.0625 (≈ 0.0268 µM) | 0.125 (≈ 0.0536 µM)
CC(=O)N[C@@H](CC(C)C)C(=O)N[C@H]1CCCNC(=O)[C@@H]([C@H](C)O)NC(=O)[C@H](C(C)(C)C)NC(=O)[C@H](CO)NC(=O)[C@H](Cc2c[nH]c3ccccc23)NC(=O)[C@H](CCO)NC(=O)[C@@H](CCN)NC(=O)[C@H](CCC(=O)N[C@@H](CCN)C(=O)N[C@H](C(=O)N[C@@H](CN)C(=O)N[C@H]2CCNC(=O)[C@H]([C@@H](C)O)NC(=O)[C@H](CCN)NC(=O)[C@H](CCN)NC(=O)[C@H](CC(C)C)NC(=O)[C@@H](CC(C)C)NC(=O)[C@H](CCN)NC2=O)[C@@H](C)O)NC(=O)[C@H](CN)NC(=O)[C@H](Cc2ccc(O)cc2)NC1=O [Ex. 33] (I: Ac-L[Orn]Y[Dap]E[dDab][hSer]WS[Tle][dT] / II: [Dab]T[Dap][Dab][Dab][dL]L[Dab][Dab]T; lactam I:2-I:C, II:4-II:C; amide I:5-II:N) | <1 | 0.0625 (≈ 0.0268 µM) | 0.125 (≈ 0.0536 µM) | 0.125 (≈ 0.0536 µM) | 0.25 (≈ 0.107 µM) | 0.25 (≈ 0.107 µM) | 0.0625 (≈ 0.0268 µM) | 0.0625 (≈ 0.0268 µM) | 0.125 (≈ 0.0536 µM)
